Experiments:
[1] = Hematological parameters in blood, mice with S-180 tumor; type: in vivo, Swiss mice; conditions: 7 days; for Differential Count of Leukocytes, Eosinophil / Differential Count of Leukocytes, Lymphocyte / Differential Count of Leukocytes, Monocyte / Differential Count of Leukocytes, Neutrophil / Total Leukocytes: mice with S-180 tumor
Experimental: (§1) Body weights (n = 10 mice/group) were determined at the first and last days of treatment. Organ weight alterations (n = 10 mice/group), and hematological and biochemical analysis (n = 5 mice/group) were performed on the last day of experimentation. All systemic toxicological analyses were also performed with 4 healthy animal groups, without the inoculation of S-180, (n = 5 mice/group) treated with 5% DMSO (i.p.), 5-FU 25 mg/Kg/day (i.p.), perillaldehyde 8,9-epoxide 100 mg/kg/day (i.p.) and perillaldehyde 8,9-epoxide 200 mg/kg/day for consecutive 7 days.
(§2) Twenty four hours after the seventh treatment day, blood samples of the animals were collected (retro-orbital plexus) with anesthetized mice (1.5%, isoflurane). Immediately after blood collection the animals were euthanized, and their organs (liver, spleen and kidneys) were removed and weighed. The wet mass of each organ was expressed as grams per 100 grams of body mass and compared to the negative control group.
(§3) For hematological analyses, an aliquot of blood from each animal was placed in ethylene diamine tetracetic acid (EDTA). Hematological parameters, including the total as well as differential counts of leukocytes, including eosinophils, lymphocytes, neutrophils and monocytes determined by standard manual procedures using optical light microscopy.

[2] = system: sarcoma 180 tumor cells (S-180); assay: In vivo antitumor activity assay, sarcoma 180 tumor growth in mice; set-up: species or system Swiss mice; conditions: 7 consecutive days
Experimental: Sarcoma 180 (S-180) tumor cells, were obtained through at the Federal University of Ceará, Brazil and maintained in the abdominal cavities of Swiss mice in their ascitic form by ten days.
The effect on tumor growth in vivo was assessed using S-180 ascites tumor cells, according standard protocol. Ten-day-old S-180 ascites tumor cells (2 × 10^6 cells per 0.5 mL) were inoculated subcutaneously into the right axillary region of animals. After 24 h, the animals were separated into 5 groups (n = 10 mice/group) and subjected to intraperitoneal (i.p.) treatment for 7 consecutive days (once a day). Group 1 consisted of animals treated by intraperitoneal (i.p.) administration of negative control—5% Dimethyl sulfoxide (DMSO); Group 2 consisted of animals treated by i.p. administration of positive control—5-fluorouracil 25 mg/kg/day (5-FU; purity > 99%; Sigma Chemical Co., St. Louis, MO, USA); Group 3 consisted of animals treated by i.p. administration of perillaldehyde 8,9-epoxide at 100 mg/kg/day; Group 4 consisted of animals treated by i.p. administration of perillaldehyde 8,9-epoxide at 200 mg/kg/day; Group 5 consisted of animals treated by i.p. administration of perillyl alcohol at 100 mg/kg/day; Group 6 consisted of animals treated by i.p. administration of perillyl alcohol at 200 mg/kg/day. At 24 h from the last day of treatment, under 1.5% isoflurane inhalation anesthesia, the mice were euthanized, and the tumors were weighed. The inhibition ratio of tumor growth (%) was calculated by the following equation: (%) = [(NC − TG)/NC] × 100, where NC is the average tumor weight of the negative control group and TG is the average tumor weight of the treated group.

[3] = Histopathological and macroscopic analyses of livers, kidneys and spleens; type: in vivo, Swiss mice
Experimental: After being weighed and fixed in 10% formaldehyde; tumors, livers, spleens, and kidneys were submitted for assessment macroscopic (size, coloration and hemorrhage), were cut into small pieces and, after that dehydrated in alcohol, diaphanized in xylene and paraffin-embedded. Subsequently, 5-µm-thick histological sections were obtained and stained with hematoxylin and eosin. Histological analyses were performed by light microscopy in order to assess possible damage caused by treatment.

[4] = Biochemical parameters in blood, mice with S-180 tumor cells; type: in vivo, Swiss mice; conditions: 7 days; for ALT / AST / Creatinine / Urea: mice with S-180 tumor cells
Experimental: as §1, §2
(§4) For evaluation of the effect of perillaldehyde 8,9-epoxide on the biochemical parameters aspartate aminotransferase (AST) and alanine aminotransferase (ALT) enzymatic to investigate liver function alterations, creatinine and urea were measured as renal function parameters. For this test, blood samples of the animals were collected without anticoagulant, centrifuged for 10 min at 3500 rpm and 25 °C to obtain […].
(§5) The Clinical Chemistry® kits (Abbott Architect; C8000; Abbott Laboratories, Wiesbaden, Germany) were used for biochemical evaluation of serum samples.

[5] = Body and organ weights, healthy mice; type: in vivo, Swiss mice; conditions: 7 days
Experimental: as §1, §2

[6] = Biochemical parameters in blood, healthy mice; type: in vivo, Swiss mice; conditions: 7 days
Experimental: as §1, §2, §4, §5

[7] = Body and organ weights, mice transplanted with S-180 tumor cells; type: in vivo, Swiss mice; conditions: 7 days
Experimental: as §1, §2

[8] = Hematological parameters in blood, healthy mice; type: in vivo, Swiss mice; conditions: 7 days
Experimental: as §1, §2, §3

[9] = system: 4 cancer cell lines (colon carcinoma, ovarian adenocarcinoma, glioblastoma, and leukemia); set-up: method as in PMID 26197313; conditions: all of the 4 cell lines studied; cited from earlier work
[10] = system: three human tumor cell lines (ovarian adenocarcinoma, colon carcinoma, glioblastoma); set-up: method as in PMID 26197313; conditions: in vitro; cited from earlier work
[11] = mice with tumor S-180, 25 mg/kg/day i.p.
[12] = mice with tumor S-180, 100 mg/kg/day i.p.
[13] = mice with tumor S-180, 200 mg/kg/day i.p.

O=c1[nH]cc(F)c(=O)[nH]1 [5-FU, 5-fluorouracil, reference compound]
Differential Count of Leukocytes, Eosinophil ([1]; 25 mg/kg/day i.p.): 0% | Differential Count of Leukocytes, Lymphocyte ([1]; 25 mg/kg/day i.p.): 89.0 ± 0.70 % | Differential Count of Leukocytes, Monocyte ([1]; 25 mg/kg/day i.p.): 0.8 ± 0.37% | Differential Count of Leukocytes, Neutrophil ([1]; 25 mg/kg/day i.p.): 10.2 ± 0.54 % | Total Leukocytes ([1]; 25 mg/kg/day i.p.): 2.50 ± 0.32 ^# 10^3 Cells/µL | tumor growth inhibition rate ([2]; 25 mg/kg/day i.p.): 68.1% | mean tumor mass ([2]; 25 mg/kg/day i.p., 24 h after last treatment, NC 1.18 ± 0.07 g): 0.36 ± 0.02 g | macroscopic observation of the spleens ([3]; 25 mg/kg/day i.p., 7 days): Visible atrophy | ALT ([4]; 25 mg/kg/day i.p.): 42.8 ± 0.6 U/L | AST ([4]; 25 mg/kg/day i.p.): 164.4 ± 10.0 U/L | Creatinine ([4]; 25 mg/kg/day i.p.): 0.28 ± 0.09 mg/dL | Urea ([4]; 25 mg/kg/day i.p.): 50.71 ± 2.18 mg/dL | Kidney ([5]; 25 mg/kg/day i.p.): 1.13 ± 0.03 g/100 g Body Mass | Liver ([5]; 25 mg/kg/day i.p.): 4.65 ± 0.21 g/100 g Body Mass | Spleen ([5]; 25 mg/kg/day i.p.): 0.19 ± 0.02 g/100 g Body Mass | Variation Body in Mass ([5]; 25 mg/kg/day i.p.): -3.50 ± 0.66 g | ALT ([6]; 25 mg/kg/day i.p.): 47.25 ± 2.8 U/L | AST ([6]; 25 mg/kg/day i.p.): 102.0 ± 15.06 U/L | Creatinine ([6]; 25 mg/kg/day i.p.): 0.37 ± 0.02 mg/dL | Urea ([6]; 25 mg/kg/day i.p.): 49.00 ± 5.86 mg/dL | Kidney [7, 11]: 1.15 ± 0.04 g/100 g Body Mass | Liver [7, 11]: 4.99 ± 0.16 g/100 g Body Mass | Spleen [7, 11]: 0.33 ± 0.02 g/100 g Body Mass | Variation Body in Mass [7, 11]: -4.46 ± 0.83 g | Differential Count of Leukocytes, Eosinophil ([8]; 25 mg/kg/day i.p.): 0% | Differential Count of Leukocytes, Lymphocyte ([8]; 25 mg/kg/day i.p.): 95.8 ± 0.70 % | Differential Count of Leukocytes, Monocyte ([8]; 25 mg/kg/day i.p.): 1.2 ± 0.70% | Differential Count of Leukocytes, Neutrophil ([8]; 25 mg/kg/day i.p.): 3.0 ± 0.70 % | Total Leukocytes ([8]; 25 mg/kg/day i.p.): 2.37 ± 0.77 * 10^3 Cells/µL

CC1([C@@H]2CC=C(C=O)CC2)CO1 (stereo partly shown) [perillaldehyde 8,9-epoxide]
effect on total leukocyte count (in words) ([1]; healthy mice and mice with S-180, at the doses tested (100 and 200 mg/kg/day i.p.)): caused leukopenia | Differential Count of Leukocytes, Eosinophil ([1]; 100 mg/kg/day i.p.): 0% | Differential Count of Leukocytes, Lymphocyte ([1]; 100 mg/kg/day i.p.): 73.2 ± 2.17 % | Differential Count of Leukocytes, Monocyte ([1]; 100 mg/kg/day i.p.): 0.6 ± 0.40% | Differential Count of Leukocytes, Neutrophil ([1]; 100 mg/kg/day i.p.): 26.2 ± 5.92 % | Total Leukocytes ([1]; 100 mg/kg/day i.p.): 5.30 ± 0.37 ^# 10^3 Cells/µL | Differential Count of Leukocytes, Eosinophil ([1]; 200 mg/kg/day i.p.): 0% | Differential Count of Leukocytes, Lymphocyte ([1]; 200 mg/kg/day i.p.): 80.6 ± 2.54 % | Differential Count of Leukocytes, Monocyte ([1]; 200 mg/kg/day i.p.): 0.8 ± 0.34% | Differential Count of Leukocytes, Neutrophil ([1]; 200 mg/kg/day i.p.): 18.6 ± 6.18 % | Total Leukocytes ([1]; 200 mg/kg/day i.p.): 6.50 ± 0.65 ^# 10^3 Cells/µL | tumor growth inhibition rate ([2]; 100 mg/kg/day i.p.): 38.4% | tumor growth inhibition rate ([2]; 200 mg/kg/day i.p.): 58.7% | Histopathological analyses of the liver, spleen, and kidneys (morphology) ([3]; light microscopy, hematoxylin-eosin, after 7 days i.p. treatment): free from any morphological changes | IC50 (median inhibitory concentration able to induce 50% of maximal effect) [9]: less than 4.0 µg/mL | changes in hepatic and renal parameters (AST, ALT, urea, creatinine; in words) ([4]; healthy and S-180 mice, at the doses tested (100 and 200 mg/kg/day i.p.)): does not cause changes in hepatic and renal parameters | ALT ([4]; 100 mg/kg/day i.p.): 35.0 ± 2.2 U/L | AST ([4]; 100 mg/kg/day i.p.): 178.0 ± 5.0 U/L | Creatinine ([4]; 100 mg/kg/day i.p.): 0.34 ± 0.01 mg/dL | Urea ([4]; 100 mg/kg/day i.p.): 43.0 ± 1.08 mg/dL | ALT ([4]; 200 mg/kg/day i.p.): 36.0 ± 3.5 U/L | AST ([4]; 200 mg/kg/day i.p.): 208.3 ± 20.6 U/L | Creatinine ([4]; 200 mg/kg/day i.p.): 0.33 ± 0.02 mg/dL | Urea ([4]; 200 mg/kg/day i.p.): 47.80 ± 2.01 mg/dL | Kidney ([5]; 100 mg/kg/day i.p.): 1.15 ± 0.06 g/100 g Body Mass | Liver ([5]; 100 mg/kg/day i.p.): 4.66 ± 0.09 g/100 g Body Mass | Spleen ([5]; 100 mg/kg/day i.p.): 0.25 ± 0.01 g/100 g Body Mass | Variation Body in Mass ([5]; 100 mg/kg/day i.p.): 0.90 ± 0.38 g | Kidney ([5]; 200 mg/kg/day i.p.): 1.17 ± 0.19 g/100 g Body Mass | Liver ([5]; 200 mg/kg/day i.p.): 5.07 ± 0.13 g/100 g Body Mass | Spleen ([5]; 200 mg/kg/day i.p.): 0.37 ± 0.06 g/100 g Body Mass | Variation Body in Mass ([5]; 200 mg/kg/day i.p.): -0.71 ± 0.53 g | ALT ([6]; 100 mg/kg/day i.p.): 55.25 ± 6.26 U/L | AST ([6]; 100 mg/kg/day i.p.): 100.5 ± 5.97 U/L | Creatinine ([6]; 100 mg/kg/day i.p.): 0.34 ± 0.01 mg/dL | Urea ([6]; 100 mg/kg/day i.p.): 54.25 ± 3.82 mg/dL | ALT ([6]; 200 mg/kg/day i.p.): 47.75 ± 4.64 U/L | AST ([6]; 200 mg/kg/day i.p.): 78.75 ± 3.17 U/L | Creatinine ([6]; 200 mg/kg/day i.p.): 0.34 ± 0.01 mg/dL | Urea ([6]; 200 mg/kg/day i.p.): 41.00 ± 4.42 mg/dL | changes in body or organ masses (in words) ([7]; healthy and S-180 mice, 100 and 200 mg/kg/day i.p.): did not cause changes in body or organ masses | Kidney [7, 12]: 1.27 ± 0.03 g/100 g Body Mass | Liver [7, 12]: 4.84 ± 0.07 g/100 g Body Mass | Spleen [7, 12]: 0.52 ± 0.02 g/100 g Body Mass | Variation Body in Mass [7, 12]: 1.11 ± 0.19 g | Kidney [7, 13]: 1.28 ± 0.03 g/100 g Body Mass | Liver [7, 13]: 4.57 ± 0.09 g/100 g Body Mass | Spleen [7, 13]: 0.49 ± 0.04 g/100 g Body Mass | Variation Body in Mass [7, 13]: -1.58 ± 0.33 g | Differential Count of Leukocytes, Eosinophil ([8]; 100 mg/kg/day i.p.): 0% | Differential Count of Leukocytes, Lymphocyte ([8]; 100 mg/kg/day i.p.): 86.0 ± 1.68 % | Differential Count of Leukocytes, Monocyte ([8]; 100 mg/kg/day i.p.): 1.5 ± 0.86% | Differential Count of Leukocytes, Neutrophil ([8]; 100 mg/kg/day i.p.): 12.5 ± 1.08 % | Total Leukocytes ([8]; 100 mg/kg/day i.p.): 3.12 ± 0.38 * 10^3 Cells/µL | Differential Count of Leukocytes, Eosinophil ([8]; 200 mg/kg/day i.p.): 0% | Differential Count of Leukocytes, Lymphocyte ([8]; 200 mg/kg/day i.p.): 89.5 ± 0.65 % | Differential Count of Leukocytes, Monocyte ([8]; 200 mg/kg/day i.p.): 1.3 ± 0.25% | Differential Count of Leukocytes, Neutrophil ([8]; 200 mg/kg/day i.p.): 9.2 ± 0.85 % | Total Leukocytes ([8]; 200 mg/kg/day i.p.): 2.62 ± 0.47 * 10^3 Cells/µL | inhibition percentage (GI%) compared with perillyl alcohol [10]: higher inhibition percentage in all cell lines tested

C=C(C)[C@@H]1CC=C(CO)CC1 [perillyl alcohol, (S)-(−)-perillyl alcohol]
tumor growth inhibition rate ([2]; 100 mg/kg/day i.p.): 35.3% | tumor growth inhibition rate ([2]; 200 mg/kg/day i.p.): 45.4%

Source: publication PMC4730278, “In Vivo Anti-Tumor Activity and Toxicological Evaluations of Perillaldehyde 8,9-Epoxide, a Derivative of Perillyl Alcohol” (International Journal of Molecular Sciences, 2016)
